From article PMC8419835

Test: Head-to-tail amide by intramolecular native chemical ligation: N,S-acyl shift of a C-terminal N-2-[thioethyl]glycine residue on TentaGel, transthioesterification with 50 equiv external thiol (MESNa or MPAA), then attack by N-terminal Cys and S,N-acyl shift, one pot
Conditions: the molecule shown is the open-chain precursor, aqueous: procedure B citrate pH 3 then phosphate pH 7.4 (DTT), procedure C 1 M TEAB pH 7.0 (MPAA, DTT), resin, 48.0 h, 2 steps

Q: For C[C@H](NC(=O)[C@H](CCCCN)NC(=O)[C@@H]1CCCN1C(=O)CNC(=O)[C@H](Cc1ccccc1)NC(=O)[C@@H](N)CS)C(=O)SCCS(=O)(=O)O, which ring closure, yield over several steps (18-membered ring) is on record?
A: 25.8%

Q: Which ring closure, yield over several steps (42-membered ring) does the source give for “H-Cys-Thr-Lys-Ser-Ile-Pro-Pro-Ile-Cys-Phe-Pro-Asp-Gly-Arg-[N-2-(thioethyl)Gly]-linker-TentaGel (linker Ala-Ala-Met or bAla-Ala-bAla-Met, text inconsistent; side chains unprotected, both Cys as free SH; via MPAA thioester)” here?
A: 40%

Q: Which ring closure, yield over several steps (21-membered ring) does the source give for C[C@@H](O)[C@H](NC(=O)[C@H](Cc1ccccc1)NC(=O)[C@@H]1CCCN1C(=O)[C@H](CC(N)=O)NC(=O)[C@@H]1CCCN1C(=O)[C@H](Cc1ccccc1)NC(=O)[C@@H](N)CS)C(=O)Sc1ccc(CC(=O)O)cc1 here?
A: 55%

Q: For C[C@H](NC(=O)[C@H](CCCCN)NC(=O)[C@@H]1CCCN1C(=O)[C@@H](N)CS)C(=O)SCCS(=O)(=O)O, which ring closure, yield over several steps (12-membered ring) is on record?
A: 24.1%

Q: For “H-Cys-Arg-Cys-Leu-Cys-Arg-Arg-Gly-Val-Cys-Arg-Cys-Ile-Cys-Thr-Arg-Gly-Phe-[N-2-(thioethyl)Gly]-linker-TentaGel (linker Ala-Ala-Met or bAla-Ala-bAla-Met, text inconsistent; side chains unprotected, all Cys as free SH; via MPAA thioester)”, which ring closure, yield over several steps (54-membered ring) is on record?
A: 39%
